Measured values taken from patent publication US12370230B2, “Hemp and PEA formulation and its use” (priority 2019, dated 2025).

Assays:
[1] = tested on: formalin-evoked acute and persistent nociceptive behaviors; assay: Formalin test (acute nocifensive response; PFD7 hypersensitivity and paw edema); assay type: in vivo, mice
Experimental: (§1) We used male CD-1 mice (9-10 weeks old; Charles River, Wilmington, MA, US) weighing 25-30 g upon arrival. They were randomly assigned to treatment groups and housed in ventilated plastic cages (4-5 per cage) in the animal facility of the University of California, Irvine. Animals were maintained in a pathogen-free environment (12-h light/dark cycle) under controlled temperature (20±2° C.) and humidity (55-60%) with food and water available ad libitum. Mice were allowed to acclimate for at least 7 days and experiments were conducted during the light phase of the light/dark cycle. All efforts were made to minimize the number of animals used and their discomfort. All procedures were approved by the Institutional Animal Care and Use Committee at the University of California, Irvine, and were carried out in strict accordance with the National Institutes of Health guidelines for the care and use of animals.
(§2) HOE (code: VOHO-MGC) and PEA (batch No 20190604_03) were supplied by Metagenics Inc. The chemical composition of HOE is presented in Table A below. The extract was aliquoted upon arrival at our facility and kept at −80° C. until use. Before tests, aliquots were thawed at room temperature and the extract was diluted to the desired dose in a vehicle of 85% distilled water/15% Tween 80. Defrosted samples were discarded after use. HOE was subjected to an internal quality control to monitor its content of CBD and CBDA over time. HOE, PEA and their combinations were administered in volumes of 10 mL/kg by oral gavage.
The formalin test was described in detail previously (e.g., see Dubuisson & Dennis, 1977). We injected formalin (1% v/v, 10 μL) or vehicle (saline, 10 μL) into the plantar surface of the right hind paw of male mice. Test compounds or vehicle (85% distilled water/15% Tween 80) were administered orally 1 h before formalin injection. Following injection, mice were immediately transferred to a transparent observation chamber where nocifensive behavior (time spent licking or biting the injected paw, number of shakings) was continuously recorded by a video camera for 60 min and then measured by trained observers blinded to experimental conditions. Behavioral tests and paw edema measurements were performed on post-formalin day (PFD) 7 in both the injected (ipsilateral) and contralateral paws.
(§3) Mechanical sensitivity was assessed using a dynamic plantar aesthesiometer (Cat. No 37450, Ugo Basile, Italy). Mice were placed individually in transparent cages positioned on a wire mesh surface. After a 45-min habituation period, a mechanical stimulus was delivered to the plantar surface of the hind paws through the metal grid by an automated steel filament exerting an increasing force ranging from 0 to 5 grams over 10 s. The force at which the mouse withdrawn its paw (withdrawal threshold, in grams) was measured automatically. Thermal sensitivity was measured using a Hargreaves plantar test apparatus (San Diego Instruments, Inc, CA, USA). Mice were individually placed in small enclosures with a glass floor. After a 45-min habituation period, the plantar surface of the hind paws was exposed to a beam of radiant heat (infrared heat intensity: 3.0) through the glass floor. The cut-off time was set at 15 s. The time taken to withdraw the paw from heat stimulus (withdrawal latency, in seconds) was measured automatically. Each paw was tested 3 times with a 2-min interval between stimuli and the mean paw withdrawal threshold and latency were calculated. Paw thickness was measured in both ipsilateral and contralateral paws using a digital caliper (Cat. No 06-664-16, Fisher scientific, USA). Paw edema was quantified as the difference (paw thickness, in mm) between the ipsilateral paw thickness and the contralateral counterpart.
Results are presented as mean S.E.M. of n experiments. ED50 values were determined by linear regression analysis of dose-response curves. […]

[2] = tested on: CCI-evoked mechanical allodynia and heat hyperalgesia; assay: Chronic constriction injury (CCI) of the sciatic nerve: mechanical allodynia and heat hyperalgesia; assay type: in vivo, mice
Experimental: as §1, §2
(§4) We elicited peripheral neuropathy in the left sciatic nerve of mice as described elsewhere (e.g., see Bennett & Xie, 1988). In brief, mice were anesthetized in 2-3% isoflurane in O2. Under aseptic conditions, the sciatic nerve was exposed at mid-thigh level through a small incision and loosely tied at 3 distinct sites (spaced at 1-mm interval) with 4-0 chromic catgut (Ethicon, USA). The wound was closed with a single muscle suture (Mersilk 5.0, Ethicon, USA) and glue to fasten the skin. Operated mice were returned to their home cages for recovery. Test compounds or vehicle were given by the oral route on day 7 after surgery (acute treatment) and then repeatedly once daily for 7 consecutive days (subchronic treatment). Behavioral tests were performed within 1 h of acute treatment or last subchronic treatment in both operated (ipsilateral) and contralateral paws. Mice were sacrificed by decapitation, the spinal cords were extruded by hydraulic pressure and processed for specific mRNA quantification in lumbar segments by real-time quantitative PCR.
as §3, with “Paw edema was quantified as the difference (paw thickness, in mm) between the ipsilateral paw thickness and the contralateral counterpart.” left out

[3] = tested on: IL-10 mRNA; assay: Real-time quantitative PCR in lumbar spinal cords of CCI mice, IL-10; assay type: in vivo; settings: PEA 20 mg/kg alone, oral, lumbar spinal cord, vs vehicle
From the text: as §4, with “Test compounds or vehicle were given by the oral route on day 7 after surgery (acute treatment) and then repeatedly once daily for 7 consecutive days (subchronic treatment). Behavioral tests were performed within 1 h of acute treatment or last subchronic treatment in both operated (ipsilateral) and contralateral paws.” left out
We extracted total RNA from lumbar spinal cords (L3-L6) using TRIzol™ reagent (Thermo Fisher Scientific, Walthman, USA) and purified with the PureLink™ RNA Mini Kit (Invitrogen, Carlsbad, USA) as directed by the supplier. […] RNA concentration and purity were determined using the NanoDrop 2000/2000-c spectrophotometer (Thermo Fisher Scientific, Walthman, USA). cDNA was synthesized using 2 μg of total RNA as input for the High-Capacity cDNA RT Kit with RNase Inhibitor (Applied BioSystems, Foster City, USA) with a final reaction volume of 20 μL. […]

[4] = PEA 300 mg/kg oral single dose, PFD7, vs vehicle
[5] = PEA at dosages lower than 300 mg/kg oral, PFD7, P>0.05 vs vehicle
[6] = PEA 100 or 300 mg/kg oral once daily for 7 consecutive days, day 14 after CCI
[7] = single oral PEA administration, dose-response, day 7 after CCI, vs vehicle

Question: For CCCCCCCCCCCCCCCC(=O)NCCO [PEA, palmitoylethanolamide], which “alleviation of heat hyperalgesia, contralateral paw” value [1, 4] is on record?
Answer: 110%

Question: And the “alleviation of heat hyperalgesia, ipsilateral paw” value [1, 4]?
Answer: 93%

Question: What about the “attenuation of mechanical allodynia, contralateral paw” value [1, 4] of the same compound?
Answer: 112%

Question: And the “attenuation of mechanical allodynia, ipsilateral paw” value [1, 4]?
Answer: 91%

Question: What about the formalin-evoked nocifensive response ([1]; PEA 10, 30, 100 and 300 mg/kg oral) of the same compound?
Answer: dose-dependent suppression

Question: What about the “formalin-evoked inflammatory response (paw thickness)” value ([1]; PEA 10, 30, 100 and 300 mg/kg oral, PFD7) of the same compound?
Answer: dose-dependent suppression

Question: What about the “effect on heat hyperalgesia” value [1, 5] of the same compound?
Answer: no effect

Question: And the “effect on mechanical allodynia” value [1, 5]?
Answer: no effect

Question: What about the “effect on heat hyperalgesia, subchronic” value [2, 6] of the same compound?
Answer: reversed

Question: And the “effect on mechanical allodynia, subchronic” value [2, 6]?
Answer: reversed

Question: And the “ED50, suppression of mechanical allodynia” value ([2]; single oral PEA administration, day 7 after CCI, 95% CI 18.7 to 26.0)?
Answer: 22.2 mg/kg

Question: And the “ED50, suppression of heat hyperalgesia” value ([2]; single oral PEA administration, day 7 after CCI, 95% CI 21.8 to 29.1)?
Answer: 25.1 mg/kg

Question: What about the “suppression of heat hyperalgesia (maximal)” value [2, 7] of the same compound?
Answer: ≤ 109%

Question: And the “suppression of mechanical allodynia (maximal)” value [2, 7]?
Answer: up to 85%

Question: What about the “IL-10 mRNA levels” value [3] of the same compound?
Answer: halved
